Measurements published in patent publication US20130137573A1, “HERBICIDAL COMPOSITIONS COMPRISING, AND METHODS OF USE OF, HERBICIDALLY ACTIVE PYRANDIONES” (priority 2009, published 2013).

Key:
Assay type in all cases: in vivo
[1] = tested on: Echinochloa crus-galli (ECHCG); test: Biological Example 4 (Test 110): transplanted (TPR) method, ECHCG damage; conditions: EC050 into flood water, ECHCG 4 leaves, 14 days after application
Procedure: (§1) Rice seeds, variety Koshihikari, were sown in seed trays, after 7 days they were transplanted as 3 groups of 2 plants, into pots containing a standard sandy loam soil saturated with water replicating swampy conditions. These were grown on for 9 days in a glasshouse bay 30/20° C. day/night; 18/6 hours light/dark; 75% humidity). Approx 10-20 seeds of Echinochloa crus-galli were sown into pots 13 days prior to application, in the same conditions as the rice. All pots were flooded to 2-3 cm water depth the day prior to application. Growth stages at time of application were: Rice: 2-3 leaves, ECHCG: 4 leaves. The test solutions were prepared by mixing the appropriate aliquots of the test substance (here, compound A-13 as EC050 Formulation Example 1) in de-ionised water to give the desired treatment concentration.
(§2) Application was made by pipetting the required amount of the test solution gently into the flood water of the appropriate pot.
(§3) The test plants were grown on in the same glasshouse conditions, and watered twice daily keeping the flood water at a depth of 2-3 cm.
(§4) No. of repetitions: 1 test only.
(§5) A visual assessment of the % herbicidal damage was made 14 days after application (0=no damage to plants, 100=total kill).

IR-64 rice = test: Biological Example 4 (Test 110): wet seeded rice (WSR) method, IR-64 rice damage; conditions: for WSR Rice IR-64 % herbicidal damage: EC050 + 0.2% Adsee, foliar spray, 14 days after application
Source text: (§6) Rice seeds varieties IR-64 and Arborio, Echinochloa crus-galli (ECHCG), and Leptochloa chinensis (LEFCH) were sown in seed trays containing a standard sandy loam soil saturated with water replicating swampy conditions. They were sown at intervals to achieve plants at the following growth stages at time of application: IR-64 and Arborio rice: from 3 leaves on the main stem to tillering; ECHCG: at two different leaf stages: 0-0.5 leaf and 2-3 leaf; LEFCH: 3 leaf. Glasshouse bay conditions were 30/20° C. day/night; 18/6 hours light/dark; 75% humidity.
(§7) The test solutions were prepared by mixing the appropriate aliquots of the test substance (here, compound A-13 as EC050 Formulation Example 1) and adjuvant (0.2% Adsee as adjuvant) in de-ionised water to give the desired treatment concentration.
(§8) Application was as a foliar spray, made using a tracksprayer. 3 days after application the trays were flooded to 2-3 cm water depth, and maintained at this level for the duration of the test.
as §4, §5

[2] = tested on: Echinochloa crus-galli (ECHCG); test: Biological Example 1 (Test 125): visual herbicidal damage to flooded ECHCG; conditions: 14 DAA
Procedure: Rice seeds, variety IR-64 (an indica type of rice), were sown in seed trays. After 7 days the resulting plants were transplanted as 3 groups of 2 plants, into pots containing a standard sandy loam soil saturated with water replicating swampy conditions. These were grown on for a further 9 days in a glasshouse bay (30/20° C. day/night; 18/6 hours light/dark; 75% humidity). Leptochloa chinensis (LEFCH) and Echinochloa crus-galli (ECHCG) were sown as 2 separate groups of approx 10-20 seeds into pots 13 days prior to application of the test substances, in the same glasshouse conditions as the rice. Therefore, each pot of weeds contained a group of LEFCH and a separate group of ECHCG. All pots of rice and all pots of weeds were flooded to 2-3 cm water depth the day prior to application of the test substances. Growth stages at time of application were as follows: Rice: from 2 leaves on the main stem up to tillering; ECHCG: from 2 leaves on the main stem up to tillering; LEFCH: 2-3 leaves.
Test solutions were prepared by mixing the appropriate aliquots of the test substances in deionised water to give the desired treatment concentration. Most of the test substances were used as formulated products. Specifically, compound A-13 was applied as the EC050 formulation disclosed in Formulation Example 1 herein (EC=emulsifiable concentrate). Reference compound A-4 was applied as the EC050 formulation disclosed in Reference Formulation Example 2 herein. Pyroxasulfone (a comparator co-herbicide) was applied as the SC050 formulation disclosed in Reference Formulation Example 6 herein (SC=Suspension concentrate). Imazosulfuron (a comparator co-herbicide) was applied as a GR0.25 formulation (GR=granule).
The test substances which were pure active ingredient (e.g. propyrisulfuron & fenoxasulfone & compound A-16) (labelled as ‘Technical’ in the following results table), were prepared by dissolving in 10.56% Emulsogen EL™ (castor oil ethoxylate, CAS Registry number 61791-12-6), 42.22% N-methylpyrrolidone and 42.22% dipropylene glycol mono-ethyl ether to give a stock solution containing 5% of the test substance and 95% of (Emulsogen EL™, N-methylpyrrolidone and dipropylene glycol mono-ethyl ether).
Application of the test substances was made by pipetting the required amount of the test solution or the test formulation gently into the flood water of the appropriate pot.
The test plants were then grown on in the same glasshouse conditions, and watered twice daily keeping the flood water at a depth of 2-3 cm.
A visual assessment of the % herbicidal damage was made 7 & 14 days after application […], and the results are presented herein as % visual herbicidal damage where 0=no damage to plants and 100=total kill.

[3] = tested on: Echinochloa crus-galli (ECHCG); test: Biological Example 2 (Test 109): visual herbicidal damage to flooded ECHCG; conditions: EC050, into flood water, 14 days after application
Procedure: as §1, with “IR-64,” for “Koshihikari,”, “(30/20°” for “30/20°”, “2-3” for “4”, “leaves.” for “leaves. The test solutions were prepared by mixing the appropriate aliquots of the test substance (here, compound A-13 as EC050 Formulation Example 1) in de-ionised water to give the desired treatment concentration.”
The test solutions were prepared by mixing the appropriate aliquots of the test substance (here, compound A-13 as the EC050 Formulation Example 1 disclosed herein) in de-ionised water to give the desired treatment concentration.
as §2, §3, §5

Koshihikari rice = test: Biological Example 4 (Test 110): transplanted (TPR) method, rice damage; conditions: for Transplanted Rice Koshihikari % herbicidal damage: 14 days after application
Procedure: as §1, §2, §3, §4, §5

[4] = tested on: Echinochloa crus-galli (ECHCG); test: Biological Example 4 (Test 110): wet seeded rice (WSR) method, ECHCG damage; conditions: for WSR ECHCG 0.5lf % herbicidal damage / WSR ECHCG 3lf % herbicidal damage: EC050 + 0.2% Adsee, foliar spray, 14 days after application; for WSR ECHCG 0.5lf % herbicidal damage: 0.5 leaf stage; for WSR ECHCG 3lf % herbicidal damage: 3 leaf stage
Source text: as §6, §7, §8, §4, §5

SMILES: CC1(C)OC(C)(C)C(O)=C(c2cc(-c3ccc(Cl)cc3F)ccc2C2CC2)C1=O [compound A-13, 4-(4′-Chloro-4-cyclopropyl-2′-fluorobiphenyl-3-yl)-2,2,6,6-tetramethylpyran-3,5-dione]
- Transplanted ECHCG % herbicidal damage ([1]; 30 g/ha): 0%
- Transplanted ECHCG % herbicidal damage ([1]; 60 g/ha): 20%
- Transplanted ECHCG % herbicidal damage ([1]; 125 g/ha): 75%
- Transplanted ECHCG % herbicidal damage ([1]; 500 g/ha): 99%
- WSR Rice IR-64 % herbicidal damage (IR-64 rice; 8 g/ha): 0%
- WSR Rice IR-64 % herbicidal damage (IR-64 rice; 60 g/ha): 0%
- WSR Rice IR-64 % herbicidal damage (IR-64 rice; 125 g/ha): 5%
- WSR Rice IR-64 % herbicidal damage (IR-64 rice; 500 g/ha): 35%
- selectivity margin between rice and ECHCG (IR-64 rice; Biological Example 4, wet seeded rice, 60 and 125 g/ha): good selectivity margin
- ECHCG control ([2]; 60 g/ha applied alone (EC050)): 35%
- ECHCG control ([2]; 90 g/ha applied alone (EC050)): 55%
- ECHCG control ([2]; 120 g/ha applied alone (EC050)): 55%
- ECHCG % herbicidal damage ([3]; 60 g/ha): 68%
- ECHCG % herbicidal damage ([3]; 120 g/ha): 90%
- ECHCG % herbicidal damage ([3]; 240 g/ha): 98%
- Transplanted Rice Koshihikari % herbicidal damage (Koshihikari rice; 60 g/ha, EC050, into flood water): 15%
- Transplanted Rice Koshihikari % herbicidal damage (Koshihikari rice; 125 g/ha, EC050 into flood water): 20%
- Transplanted Rice Koshihikari % herbicidal damage (Koshihikari rice; 500 g/ha, EC050 into flood water): 60%
- selectivity margin between rice and ECHCG (Koshihikari rice; Biological Example 4, transplanted rice, 125 g/ha): certain selectivity margin
- WSR ECHCG 0.5lf % herbicidal damage ([4]; 8 g/ha): 45%
- WSR ECHCG 3lf % herbicidal damage ([4]; 8 g/ha): 65%
- WSR ECHCG control ([4]; 60 and 125 g/ha, 2 growth stages, 0.5 leaf and 3 leaf, wet seeded rice method): 90-100%
- WSR ECHCG 0.5lf % herbicidal damage ([4]; 60 g/ha): 90%
- WSR ECHCG 3lf % herbicidal damage ([4]; 60 g/ha): 100%
- WSR ECHCG 0.5lf % herbicidal damage ([4]; 125 g/ha): 100%
- WSR ECHCG 3lf % herbicidal damage ([4]; 125 g/ha): 100%
- WSR ECHCG 0.5lf % herbicidal damage ([4]; 500 g/ha): 100%
- WSR ECHCG 3lf % herbicidal damage ([4]; 500 g/ha): 100%
